Experimental data taken from US20060252807A1, “Novel ortho-terphenyl inhibitors of p38 kinase and methods of treating inflammatory disorders” (Kalypsys, Inc., priority 2005, published 2006).
pIC50: −log10 of the molar value.

These compounds were tested against T1, active p38 alpha enzyme (Upstate Biotechnology) (Homo sapiens, UniProt Q16539) (assay: p38α biochemical assay (ATP turnover, luminescent detection, Cambrex PKlight)). Conditions: p38α kinase; Table 1 Biological Activity.
T1 construct: purchased Upstate Biotechnology
Summary of the method: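 Active human p38α was incubated with full-length MapkapK2 protein as substrate and 1.4 uM ATP (final) for 2 hours at 30C. Buffer: 200 mM Tris, 100 mM MgCl2, 1.5 mM EGTA, 4 mM CaCl2, 20 mM MOPS, 1 mM EDTA, 1% glycerol, 0.1% β-mercaptoethanol, 1 mg/ml BSA. Total ATP turnover read by luminescence.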

T1 sequence (Q16539 whole entry): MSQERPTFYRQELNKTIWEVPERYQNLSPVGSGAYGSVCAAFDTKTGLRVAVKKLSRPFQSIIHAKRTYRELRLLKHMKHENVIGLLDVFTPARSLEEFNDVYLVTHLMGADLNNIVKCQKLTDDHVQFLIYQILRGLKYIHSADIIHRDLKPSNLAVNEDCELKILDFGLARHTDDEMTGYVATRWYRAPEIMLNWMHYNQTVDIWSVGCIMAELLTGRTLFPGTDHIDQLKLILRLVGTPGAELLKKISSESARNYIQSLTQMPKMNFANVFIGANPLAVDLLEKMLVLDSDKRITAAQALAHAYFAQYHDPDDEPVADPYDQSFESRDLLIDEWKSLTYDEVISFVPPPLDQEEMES

SMILES | pIC50
CCN(Cc1nc(-c2ccc(F)cc2)c(-c2nc(C(=O)NC(C)C)cs2)o1)C1CCCCC1 [Example 1218] | < 6.00
CC(=O)N[C@H]1CCN(Cc2nc(-c3ccc(F)cc3)c(-c3nc(C(=O)NC(C)C)cs3)o2)C1 [Example 1220] | < 6.00
CC(C)NC(=O)c1csc(-c2oc(CN3CCCC(C(N)=O)C3)nc2-c2ccc(F)cc2)n1 (centres unmarked) [Example 1222] | < 6.00
CC(C)NC(=O)c1csc(-c2oc(CN3CCc4ccccc4C3)nc2-c2ccc(F)cc2)n1 [Example 1224] | < 6.00
CCN(Cc1ccccc1)Cc1nc(-c2ccc(F)cc2)c(-c2nc(C(=O)NC(C)C)cs2)o1 [Example 1225] | < 6.00
CC(C)NC(=O)c1csc(-c2oc(CN(C)CCc3ccccn3)nc2-c2ccc(F)cc2)n1 [Example 1228] | < 6.00
C=CCN(Cc1nc(-c2ccc(F)cc2)c(-c2nc(C(=O)NC(C)C)cs2)o1)C1CCCCC1 [Example 1231] | < 6.00
COC(=O)C1CCN(Cc2nc(-c3ccc(F)cc3)c(-c3nc(C(=O)NC(C)C)cs3)o2)CC1 [Example 1232] | < 6.00
CC(C)NC(=O)c1csc(-c2oc(CN(Cc3ccccc3)C(C)C)nc2-c2ccc(F)cc2)n1 [Example 1233] | < 6.00
CC(C)NC(=O)c1csc(-c2oc(CN(CCO)Cc3ccccc3)nc2-c2ccc(F)cc2)n1 [Example 1234] | < 6.00
CCOC(=O)C1CCCN(Cc2nc(-c3ccc(F)cc3)c(-c3nc(C(=O)NC(C)C)cs3)o2)C1 (centres unmarked) [Example 1238] | < 6.00
CC(C)NC(=O)c1csc(-c2oc(CN(CCO)[C@H](C)c3ccccc3)nc2-c2ccc(F)cc2)n1 [Example 1244] | < 6.00
CC(C)NC(=O)c1csc(-c2oc(CN(CCCO)Cc3ccccn3)nc2-c2ccc(F)cc2)n1 [Example 1245] | < 6.00
CC(C)NC(=O)c1csc(-c2oc(CN(C)CC(O)c3ccc(O)cc3)nc2-c2ccc(F)cc2)n1 (centres unmarked) [Example 1246] | < 6.00
CC(C)NC(=O)c1csc(-c2oc(CN3CCN(C4CCCCC4)CC3)nc2-c2ccc(F)cc2)n1 [Example 1247] | < 6.00

The remaining lines, values ahead:

pIC50 | SMILES
< 6.00 | CC(C)NC(=O)c1csc(-c2oc(CN3CCC(C(N)=O)CC3)nc2-c2ccc(F)cc2)n1 [Example 1219]
< 6.00 | CC(C)NC(=O)c1csc(-c2oc(CN3CCCCC3CCO)nc2-c2ccc(F)cc2)n1 (centres unmarked) [Example 1223]
< 6.00 | CC(C)NC(=O)c1csc(-c2oc(CN(C)CCc3ccccc3)nc2-c2ccc(F)cc2)n1 [Example 1227]
< 6.00 | CC(C)NC(=O)c1csc(-c2oc(CN3CCCC4CCCCC43)nc2-c2ccc(F)cc2)n1 (centres unmarked) [Example 1230]
< 6.00 | CC(C)NC(=O)c1csc(-c2oc(CN(C)CC(O)c3ccccc3)nc2-c2ccc(F)cc2)n1 (centres unmarked) [Example 1235]
< 6.00 | CC(C)NC(=O)c1csc(-c2oc(CN3CCC(O)(O)CC3)nc2-c2ccc(F)cc2)n1 [Example 1236]
< 6.00 | CCOC(=O)C1CCN(Cc2nc(-c3ccc(F)cc3)c(-c3nc(C(=O)NC(C)C)cs3)o2)CC1 [Example 1237]
< 6.00 | CCOC(=O)N1CCN(Cc2nc(-c3ccc(F)cc3)c(-c3nc(C(=O)NC(C)C)cs3)o2)CC1 [Example 1239]
< 6.00 | CC(C)NC(=O)c1csc(-c2oc(CN(CCC#N)Cc3cccnc3)nc2-c2ccc(F)cc2)n1 [Example 1240]
< 6.00 | CC(C)NC(=O)c1csc(-c2oc(CN3CCN(c4ccccc4)CC3)nc2-c2ccc(F)cc2)n1 [Example 1241]
< 6.00 | CC(C)NC(=O)c1csc(-c2oc(CN3CCN(c4ccccn4)CC3)nc2-c2ccc(F)cc2)n1 [Example 1242]
< 6.00 | CCCCN(Cc1ccccc1)Cc1nc(-c2ccc(F)cc2)c(-c2nc(C(=O)NC(C)C)cs2)o1 [Example 1243]
< 6.00 | CC(C)NC(=O)c1csc(-c2oc(CN3CCC(Cc4ccccc4)CC3)nc2-c2ccc(F)cc2)n1 [Example 1248]
< 6.00 | CC(C)NC(=O)c1csc(-c2oc(CN3CCN(Cc4ccccc4)CC3)nc2-c2ccc(F)cc2)n1 [Example 1249]
